We go through 22 compounds from patent US7645781B2, “N-aryl-2-oxazolidinone-5-carboxamides and their derivatives” (Pfizer Inc, priority 2002, dated 2010).

Values after ≈ are worked out from the molar mass of the structure shown.

Series [1] relates to Staphylococcus aureus (SAUR 9213). In words: MIC by standard agar dilution method. It counts as cell-based. Conditions: Mueller Hinton agar, incubated overnight at 35° C., read-out: MIC. The gist of the method: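 Serial 2-fold compound dilutions in Mueller Hinton agar, spot-inoculated with approximately 10^4 to 10^5 cells from a 1:20-diluted 0.5 McFarland suspension in TSB. Incubated overnight at 35 °C; MIC (μg/ml) is the lowest concentration preventing visible growth.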
On the technique in general: In agar dilution, organisms are placed on agar that contains the substance at set levels.

Regarding `Cn1c(=O)sc2cc(N3C[C@H](C(=O)NCCF)OC3=O)ccc21` [Example 35, (5R)-N-(2-Fluoroethyl)-3-(2,3-dihydro-3-methyl-2-oxo-6-benzothiazolyl)-2-oxo-5-oxazolidinecarboxamide], the melting point (commonly the temperature, or range, at which the solid turns liquid) was 201 to 203 °C. Besides, in series [1], the MIC (usually the lowest concentration found to suppress growth) stood at 2 µg/mL (≈ 5.89 µM).
Taken in the same sequence, the figures for `CCn1c(=O)sc2cc(N3C[C@H](C(=O)NC)OC3=O)ccc21` [Example 36, (5R)-(−)-N-Methyl-3-(2,3-dihydro-3-ethyl-2-oxo-6-benzothiazolyl)-2-oxo-5-oxazolidinecarboxamide] were 227 to 229 °C and 2 µg/mL (≈ 6.22 µM).
The compound `CNC(=O)[C@H]1CN(c2ccc3c(c2)sc(=O)n3C(C)C)C(=O)O1` [Example 37, (5R)-(−)-N-Methyl-3-(2,3-dihydro-3-isopropyl-2-oxo-6-benzothiazolyl)-2-oxo-5-oxazolidinecarboxamide] yielded a melting point of 172 to 173.5 °C. The minimal inhibitory concentration (MIC) in series [1] amounted to 2 µg/mL (≈ 5.96 µM).
In the case of `Cn1c(=O)oc2cc(N3C[C@H](C(N)=O)OC3=O)ccc21` [Example 38, (5R)-(−)-3-(2,3-dihydro-3-methyl-2-oxo-6-benzoxazolyl)-2-oxo-5-oxazolidinecarboxamide], the melting point is > 260 °C. Moreover, the MIC in series [1] was found to be 1 µg/mL (≈ 3.61 µM).
Consider `CCn1c(=O)oc2cc(N3C[C@H](C(N)=O)OC3=O)ccc21` [Example 39, (5R)-(−)-3-(2,3-Dihydro-3-ethyl-2-oxo-6-benzoxazolyl)-2-oxo-5-oxazolidinecarboxamide], for which the melting point is 234 to 236 °C. Moreover, the MIC in series [1] is 1 µg/mL (≈ 3.43 µM).
Taken in the same sequence, the figures for `CC(C)n1c(=O)oc2cc(N3C[C@H](C(N)=O)OC3=O)ccc21` [Example 40, (5R)-(−)-3-(2,3-Dihydro-3-isopropyl-2-oxo-6-benzoxazolyl)-2-oxo-5-oxazolidinecarboxamide] were 182.5 to 184 °C and 4 µg/mL (≈ 13.1 µM).
With `CNC(=O)[C@H]1CN(c2ccc(C3CCS(=O)(=O)CC3)c(F)c2)C(=O)O1` [Example 41, (5R)-(−)-N-Methyl-3-[4-(Tetrahydro-2H-thiopyran-4-yl)-3-fluorophenyl]-2-oxo-5-oxazolidinecarboxamide S,S-dioxide], the melting point was in the range of 180.5 to 182 °C. The MIC in series [1] came out at 2 µg/mL (≈ 5.4 µM).
In turn, `CNC(=O)[C@H]1CN(c2cc(F)c(N3CCOCC3)c(F)c2)C(=O)O1` [Example 42, (5R)-(−)-N-Methyl-3-[3,5-difluoro-4-(4-morpholinyl)phenyl]-2-oxo-5-oxazolidinecarboxamide] displayed a melting point of 179 to 181 °C. For the same compound, the MIC in series [1] turned out to be 4 µg/mL (≈ 11.7 µM).
Taken in the same sequence, the figures for `CNC(=O)[C@H]1CN(c2cc(F)c(N3CC[S+]([O-])CC3)c(F)c2)C(=O)O1` [Example 43, (5R)-(−)-N-Methyl-3-[3,5-difluoro-4-(thiomorpholin-4-yl)phenyl]-2-oxo-5-oxazolidinecarboxamide S-oxide] were 237 to 241 °C and 4 µg/mL (≈ 10.7 µM).
Taken in the same sequence, the figures for `CNC(=O)[C@H]1CN(c2cc(F)c(N3CCS(=O)(=O)CC3)c(F)c2)C(=O)O1` [Example 44, (5R)-(−)-N-Methyl-3-[3,5-difluoro-4-(thiomorpholin-4-yl)phenyl]-2-oxo-5-oxazolidinecarboxamide S,S-dioxide] were 243 to 246 °C and 4 µg/mL (≈ 10.3 µM).
Taken in the same sequence, the figures for `NC(=O)[C@H]1CN(c2cc(F)c(C3CCS(=O)(=O)CC3)c(F)c2)C(=O)O1` [Example 45, (5R)-3-[3,5-Difluoro-4-(Tetrahydro-2H-thiopyran-4-yl)phenyl]-2-oxo-5-oxazolidinecarboxamide S,S-dioxide] were 243 to 245 °C and 4 µg/mL (≈ 10.7 µM).
In the case of `NC(=O)[C@H]1CN(c2cc(F)c([C@H]3CC[S@@+]([O-])CC3)c(F)c2)C(=O)O1` [Example 46, (5R)-(−)-3-[3,5-Difluoro-4-(cis-tetrahydro-1-oxido-2H-thiopyran-4-yl)phenyl]-2-oxo-5-oxazolidinecarboxamide], the melting point is 283 to 285 °C (dec.). For the same compound, the MIC in series [1] is 8 µg/mL (≈ 22.3 µM).
Taken in the same sequence, the figures for `C[C@@H]1Cc2cc(N3C[C@H](C(N)=O)OC3=O)ccc2N1C=O` [Example 49, (5R)-3-[(2R)-2,3-Dihydro-1-formyl-2-methyl-1H-indol-5-yl]-2-oxo-5-oxazolidinecarboxamide] were 228 to 230 °C and 8 µg/mL (≈ 27.7 µM).
Taken in the same sequence, the figures for `C[C@@H]1Cc2cc(N3C[C@H](C(N)=O)OC3=O)ccc2N1C(=O)CO` [Example 50, (5R)-3-[(2R)-2,3-Dihydro-1-(hydroxyacetyl)-2-methyl-1H-indol-5-yl]-2-oxo-5-oxazolidinecarboxamide] were 198 to 200 °C and 2 µg/mL (≈ 6.26 µM).
As for `CNC(=O)[C@H]1CN(c2ccc3c(c2)oc(=O)n3C)C(=O)O1` [Example 51, (5R)-(−)-N-Methyl-3-(2,3-dihydro-3-methyl-2-oxo-6-benzoxazolyl)-2-oxo-5-oxazolidinecarboxamide], the melting point was in the range of 304 to 306 °C. For the same compound, the MIC in series [1] turned out to be 2 µg/mL (≈ 6.87 µM).
In turn, `CCn1c(=O)oc2cc(N3C[C@H](C(=O)NC)OC3=O)ccc21` [Example 52, (5R)-(−)-N-Methyl-3-(2,3-dihydro-3-ethyl-2-oxo-6-benzoxazolyl)-2-oxo-5-oxazolidinecarboxamide] registered a melting point of 263 to 265 °C. The MIC in series [1] amounted to 2 µg/mL (≈ 6.55 µM).
The compound `CNC(=O)[C@H]1CN(c2ccc3c(c2)oc(=O)n3C(C)C)C(=O)O1` [Example 53, (5R)-(−)-N-Methyl-3-(2,3-dihydro-3-isopropyl-2-oxo-6-benzoxazolyl)-2-oxo-5-oxazolidinecarboxamide] yielded a melting point of 216 to 218 °C. In series [1], the MIC stood at 2 µg/mL (≈ 6.26 µM).
`NC(=O)[C@H]1CN(c2ccc(N3Cc4cccnc4C3)c(F)c2)C(=O)O1` [Example 54, (5R)-3-[4-(5,7-Dihydro-6H-pyrrolo[3,4-b]pyridin-6-yl)-3-fluorophenyl]-2-oxo-5-oxazolidinecarboxamide]: the melting point is 257 °C (dec.). Besides, the MIC in series [1] came out at 0.5 µg/mL (≈ 1.46 µM).
Take `CNC(=O)[C@H]1CN(c2ccc(N3Cc4cccnc4C3)c(F)c2)C(=O)O1` [Example 55, (5R)-N-Methyl-3-[4-(5,7-dihydro-6H-pyrrolo[3,4-b]pyridin-6-yl)-3-fluorophenyl]-2-oxo-5-oxazolidinecarboxamide]: the melting point was 275 °C (dec.). For the same compound, the MIC in series [1] turned out to be 1 µg/mL (≈ 2.81 µM).
In the case of `NC(=O)[C@H]1CN(c2ccc(C3=NNC(=O)CS3)c(F)c2)C(=O)O1` [Example 64, (5R)-3-[3-Fluoro-4-(5-oxo-5,6-dihydro-4H-[1,3,4]thiadiazin-2-yl)phenyl]-2-oxo-5-oxazolidinecarboxamide], the melting point was 249 to 251 °C. The MIC in series [1] is 0.5 µg/mL (≈ 1.48 µM).
In turn, `CN1C(=O)CCc2cc(N3C[C@H](C(N)=O)OC3=O)cc(F)c21` [Example 82, (5R)-3-(8-Fluoro-1-methyl-2-oxo-1,2,3,4-tetrahydroquinolin-6-yl)-2-oxo-5-oxazolidinecarboxamide] registered a melting point of 260 to 262 °C. Besides, the MIC in series [1] worked out at 1 µg/mL (≈ 3.25 µM).
`CNC(=O)[C@H]1CN(c2cc(F)c3c(c2)CCC(=O)N3C)C(=O)O1` [Example 83, (5R)-N-Methyl-3-(8-fluoro-1-methyl-2-oxo-1,2,3,4-tetrahydroquinolin-6-yl)-2-oxo-5-oxazolidinecarboxamide] displayed a melting point of 264 to 265 °C. The MIC in series [1] stood at 2 µg/mL (≈ 6.22 µM).
